# Values quoted from earlier work in PMC11704089, “A Novel Cell-Penetrating Peptide–Vascular Endothelial Growth Factor Small Interfering Ribonucleic Acid Complex That Mediates the Inhibition of Angiogenesis by Human Umbilical Vein Endothelial Cells and in an Ex Vivo Mouse Aorta Ring Model” (Biomaterials Research, 2025).
# Test system: various cell lines
sequence,measurement,setting,value
RNQRKTVRCFRCRQAGHWISDCRLKSK [Ara27],Cytotoxicity,,without evidence of cytotoxicity
same,Intracellular uptake compared to Tat-protein transduction domain and membrane translocating sequence,,significant improvement in intracellular uptake
same,Cellular internalization,"low concentrations and short treatment conditions, various cell lines",efficiently internalized
